Source: patent publication US20100105638A1, “COSMETIC COMPOSITIONS” (priority 2007, published 2010)
Read-outs that look alike come from different tables or passages of the source.

Experiments:
[1] = hot water; cited from earlier work
[2] = Solubility of Biotin in aqueous niacinamide / sodium ascorbyl phosphate solutions (addition until turbid); format: physicochemical
Procedure: The solubility of Biotin was assessed in aqueous niacinamide (Niacinamide PC, DSM Nutritional Products)/sodium ascorbyl phosphate (STAY-C® 50, DSM Nutritional Products) solutions in different concentration. As reference, the solubility of biotin in water was assessed.
After the addition of 5 g of water into a 10 ml glass vial, STAY-C® 50 and Niacinamide PC were added in order to yield the ratios and wt. % as indicated in table 1. The mixtures were stirred with a magnetic stirrer at RT until STAY-C® 50 and Niacinamide PC were completely dissolved. Then, biotin was added in about 1 mg steps to the mixture until the solution becomes turbid. This experiment was repeated twice.
The sum of the amount of biotin which was added before the turbidity occurred is taken as the solubility of Biotin.

For `O=C(O)CCCC[C@@H]1SC[C@@H]2NC(=O)N[C@@H]21` [Biotin], which Solubility of Biotin [1] is on record?
The Solubility of Biotin was “about 0.02 g/100 ml”.

What about the “Solubility of Biotin” value ([2]; Reference: water without STAY-C 50 and Niacinamide PC, RT) of the same molecule?
Its value is 0.022 wt. %.

And the “Solubility of Biotin” value ([2]; water, STAY-C 50 0.1 wt. %, Niacinamide PC 1 wt. %, ratio 1:10, RT)?
Its value is 0.15 wt. %.

And the “Solubility of Biotin” value ([2]; water, STAY-C 50 0.1 wt. %, Niacinamide PC 3 wt. %, ratio 1:30, RT)?
The value was 0.17 wt. %.

And the “Solubility of Biotin” value ([2]; water, STAY-C 50 0.1 wt. %, Niacinamide PC 5 wt. %, ratio 1:50, RT)?
The value was 0.20 wt. %.

And the “Solubility of Biotin” value ([2]; water, STAY-C 50 0.1 wt. %, Niacinamide PC 10 wt. %, ratio 1:100, RT)?
Its value is 0.26 wt. %.

And the “Solubility of Biotin” value ([2]; water, STAY-C 50 0.5 wt. %, Niacinamide PC 1 wt. %, ratio 1:2, RT)?
The value was 0.33 wt. %.

What about the “Solubility of Biotin” value ([2]; water, STAY-C 50 0.5 wt. %, Niacinamide PC 3 wt. %, ratio 1:6, RT) of the same molecule?
Its value is 0.38 wt. %.

What about the “Solubility of Biotin” value ([2]; water, STAY-C 50 0.5 wt. %, Niacinamide PC 5 wt. %, ratio 1:10, RT) of the same molecule?
Its value is 0.41 wt. %.

And the “Solubility of Biotin” value ([2]; water, STAY-C 50 0.5 wt. %, Niacinamide PC 10 wt. %, ratio 1:20, RT)?
The value was 0.47 wt. %.

And the “Solubility of Biotin” value ([2]; water, STAY-C 50 1.0 wt. %, Niacinamide PC 1 wt. %, ratio 1:1, RT)?
The value was 0.64 wt. %.

And the “Solubility of Biotin” value ([2]; water, STAY-C 50 1.0 wt. %, Niacinamide PC 3 wt. %, ratio 1:3, RT)?
The value was 0.66 wt. %.

And the “Solubility of Biotin” value ([2]; water, STAY-C 50 1.0 wt. %, Niacinamide PC 5 wt. %, ratio 1:5, RT)?
Its value is 0.70 wt. %.

What about the “Solubility of Biotin” value ([2]; water, STAY-C 50 1.0 wt. %, Niacinamide PC 10 wt. %, ratio 1:10, RT) of the same molecule?
The value was 0.76 wt. %.

And the “Solubility of Biotin” value ([2]; water, STAY-C 50 3.0 wt. %, Niacinamide PC 1 wt. %, ratio 3:1, RT)?
The value was 1.53 wt. %.

And the “Solubility of Biotin” value ([2]; water, STAY-C 50 3.0 wt. %, Niacinamide PC 3 wt. %, ratio 1:1, RT)?
Its value is 1.65 wt. %.

What about the “Solubility of Biotin” value ([2]; water, STAY-C 50 3.0 wt. %, Niacinamide PC 5 wt. %, ratio 1:1.6, RT) of the same molecule?
The value was 1.71 wt. %.

And the “Solubility of Biotin” value ([2]; water, STAY-C 50 3.0 wt. %, Niacinamide PC 10 wt. %, ratio 1:3.3, RT)?
The value was 1.78 wt. %.
